Measured values taken from ChEMBL document CHEMBL5357065, “Neuropharmacological Advances: Harnessing 5-HT2A Receptor Modulators and Psychoplastogens” (ACS Med Chem Lett, 2024).
Activity calls are given as the source filed them. The calls are words filed in the database; no cut-off is given here.

Assays:
Format in all cases: functional, cell-based
Cortical neurone [1] = experiment: Induction of neurite outgrowth in Wistar rat Cortical neurons assessed as increase in neurite length at <=10 pM incubated for 72 hrs by automated imaging based analysis
Cortical neurone [2] = experiment: Induction of neurite outgrowth in Wistar rat Cortical neurons assessed as increase in neurite branching at <=10 pM incubated for 72 hrs by automated imaging based analysis
Cortical neurone [3] = experiment: Induction of neurite outgrowth in Wistar rat Cortical neurons assessed as increase in neurite number at <=10 pM incubated for 72 hrs by automated imaging based analysis
[4] = molecular target: T1, 5-hydroxytryptamine receptor 2C (Homo sapiens) (UniProt P28335); experiment: Positive allosteric modulation of human 5-HT2C receptor stably expressed in CHO cells assessed as modulation of 5-HT induced intracellular Ca2+ release by measuring maximal efficacy at 1 uM preincubated for 15 mins followed by 5-HT addition and measured by FLIPR analysis relative to control; settings: filed as positive allosteric modulator
T1 sequence (whole entry): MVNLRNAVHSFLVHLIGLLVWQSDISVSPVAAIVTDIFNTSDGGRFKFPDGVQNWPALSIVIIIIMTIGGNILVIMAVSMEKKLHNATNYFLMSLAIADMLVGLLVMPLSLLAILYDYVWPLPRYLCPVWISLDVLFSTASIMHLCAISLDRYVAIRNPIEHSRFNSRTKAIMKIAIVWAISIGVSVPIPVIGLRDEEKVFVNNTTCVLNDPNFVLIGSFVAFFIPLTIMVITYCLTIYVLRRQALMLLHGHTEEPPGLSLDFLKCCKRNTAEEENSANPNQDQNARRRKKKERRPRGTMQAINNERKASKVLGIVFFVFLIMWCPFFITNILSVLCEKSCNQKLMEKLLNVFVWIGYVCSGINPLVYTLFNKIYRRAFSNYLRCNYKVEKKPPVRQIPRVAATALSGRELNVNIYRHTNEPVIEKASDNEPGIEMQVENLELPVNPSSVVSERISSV

[5] = molecular target: 5-hydroxytryptamine receptor 2A (Homo sapiens) (UniProt P28223); experiment: Positive allosteric modulation of human 5-HT2A receptor stably expressed in CHO cells assessed as modulation of 5-HT induced intracellular Ca2+ release by measuring maximal efficacy at 1 uM preincubated for 15 mins followed by 5-HT addition and measured by FLIPR analysis relative to control; settings: filed as positive allosteric modulator
[6] = molecular target: 5-hydroxytryptamine receptor 2B (Homo sapiens) (UniProt P41595); experiment: Modulation of 5-HT2B receptor (unknown origin) assessed as modulation of 5-HT induced intracellular Ca2+ release by measuring maximal efficacy at 1 uM preincubated for 15 mins followed by 5-HT addition and measured by FLIPR analysis relative to control; settings: filed as modulator
5-hydroxytryptamine receptor 2B (Homo sapiens), sequence (P41595 whole entry): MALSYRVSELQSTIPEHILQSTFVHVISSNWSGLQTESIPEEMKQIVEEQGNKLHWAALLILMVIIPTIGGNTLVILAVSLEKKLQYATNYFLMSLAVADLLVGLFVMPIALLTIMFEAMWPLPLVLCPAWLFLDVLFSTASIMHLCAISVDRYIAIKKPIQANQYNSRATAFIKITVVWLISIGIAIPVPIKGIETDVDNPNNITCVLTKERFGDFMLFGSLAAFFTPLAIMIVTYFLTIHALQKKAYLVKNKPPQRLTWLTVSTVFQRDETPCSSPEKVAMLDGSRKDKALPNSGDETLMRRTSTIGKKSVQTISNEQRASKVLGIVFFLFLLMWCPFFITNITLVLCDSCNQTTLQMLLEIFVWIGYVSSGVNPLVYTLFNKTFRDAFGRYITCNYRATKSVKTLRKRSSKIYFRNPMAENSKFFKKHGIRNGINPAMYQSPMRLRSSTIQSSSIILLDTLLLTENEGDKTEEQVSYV

5-hydroxytryptamine receptor 2A (Homo sapiens), sequence (P28223 whole entry): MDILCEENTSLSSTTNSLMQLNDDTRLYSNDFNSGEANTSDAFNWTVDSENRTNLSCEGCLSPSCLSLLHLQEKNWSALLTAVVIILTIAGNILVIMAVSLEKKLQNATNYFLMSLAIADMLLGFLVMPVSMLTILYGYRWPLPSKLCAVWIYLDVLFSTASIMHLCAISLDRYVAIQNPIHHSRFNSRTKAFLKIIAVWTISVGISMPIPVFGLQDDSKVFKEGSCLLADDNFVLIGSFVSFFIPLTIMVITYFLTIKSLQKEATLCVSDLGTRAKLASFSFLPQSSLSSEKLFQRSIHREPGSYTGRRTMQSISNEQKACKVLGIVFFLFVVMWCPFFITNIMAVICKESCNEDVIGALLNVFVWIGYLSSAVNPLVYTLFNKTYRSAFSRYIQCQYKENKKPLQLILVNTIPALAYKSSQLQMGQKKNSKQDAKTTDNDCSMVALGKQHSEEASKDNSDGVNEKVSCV

Row | Compound | Activity (Cortical neurone [1]) | Activity (Cortical neurone [2]) | Activity (Cortical neurone [3]) | Emax [4] | Emax [5] | Emax [6]
1 | COc1ccc2c3c([nH]c2c1)CCN1CCC[C@H]1C3 | Active | Active | Active | – | – | –
2 | COc1cccc2[nH]c3c(c12)C[C@H]1CCCN1CC3 | Active | Active | Active | – | – | –
3 | O=C(CCCc1ccccc1)NC[C@H](O)CO | – | – | – | 124% | 97.8% | 106%
4 | COc1ccc2c3c([nH]c2c1)C[C@H]1CCCN1CC3 | Active | Active | Active | – | – | –
5 | O=C(NC[C@H](O)CO)c1cc(-c2ccccc2)ccn1 | – | – | – | 120% | 106% | 115%
6 | COc1ccc2c3c([nH]c2c1)CCN1CCC[C@@H]1C3 | Active | Active | Active | – | – | –
7 | O=C(NC[C@H](O)CO)[C@@H]1C[C@H](c2ccccc2)CCN1 | – | – | – | – | – | 105%
8 | CC(Cc1cnc2cc(F)ccn12)N(C)C (stereo not drawn) | inactive | Active | inactive | – | – | –
9 | COc1ccc2c3c([nH]c2c1)C[C@@H]1CCCN1CC3 | Active | Active | Active | – | – | –
10 | COc1ccn2c(CC(C)N(C)C)ncc2c1 (stereo not drawn) | Active | Active | Active | – | – | –
